Article PMC9757636, “The effectiveness of newly synthesized quaternary ammonium salts differing in chain length and type of counterion against priority human pathogens” (Scientific Reports, 2022)
Marks after values point to notes of the source that are not given here.

How the values were obtained:
S. epidermidis B374 [1] = experiment: Adhesion to stainless steel; type: cell-based, Staphylococcus epidermidis
S. epidermidis B374 [2] = experiment: Adhesion to polystyrene plate; type: cell-based, Staphylococcus epidermidis
Protocol: (§1) Adhesion analysis to polystyrene surfaces was determined according to the method of Rodrigues et al. with modifications. Polystyrene 96-well plates were incubated with the respective compound concentrations (10–1280 µM) for 4 h at 37 °C with 100 rpm shaking. The plates were then washed with miliQ and inoculated with 100 µL of bacterial suspension (OD = 0.4–0.6). Plates were incubated for 6 h at 37 °C with 100 rpm shaking. Wells were rinsed and fixed for 20 min at 60 °C. They were then […] with 0.1% crystal violet solution for 5 min. The wells were washed with miliQ until the unfixed dye was completely eluted. The absorbance at λ = 590 nm was measured using a reader (Bio-Rad Universal Hood II). The positive control was a surface not treated with QAS. Three independent trials were performed.

[3] = test system: S. epidermidis ATCC 35984; experiment: Adhesion to polystyrene plate; type: cell-based, Staphylococcus epidermidis; settings: 1280 µM, range given over two strains
Protocol: as §1

E. coli H64 = experiment: MIC/MBC microdilution; type: cell-based, Escherichia coli; settings: E. coli H64; for Minimal bactericidal concentration (*MBC): 99.9% reduction
Protocol: (§2) The minimum inhibitory concentration (MIC) of the tested monomeric QAS was performed using the microdilution method according to CLSI recommendation (M27-A3). Concentrations from 10 to 1280 µM were analyzed. Strains were incubated with or without compounds (growth control) for 24 h at 37 °C. Three independent replicates were performed. The MIC value was determined spectrophotometrically and the concentration that inhibited more than 90% of growth was determined. Optical density was measured at λ = 590 nm using a 96-well microplate reader (Bio-Rad Universal Hood II).
(§3) To determine the minimum bactericidal concentration (MBC), 10 µL of bacterial suspension incubated with monomeric QAS (MIC concentration and two times higher) was transferred to plates with LB (1% tryptone, 1% yeast extract, 0.5% NaCl) medium. […] The concentration that reduced 99.9% of microbial growth was determined as MBC[54].

E. coli ATCC 11229 = experiment: MIC/MBC microdilution; type: cell-based, Escherichia coli; settings: E. coli ATCC 11229; for Minimal bactericidal concentration (*MBC): 99.9% reduction; for Minimal inhibitory concentration (MIC): 24 h, 37 °C, >90% growth inhibition
Protocol: as §2, §3

[4] = test system: Salmonella typhimurium TA100; experiment: Mutagenicity (Ames test); type: cell-based; settings: for Number of colonies: ± SD
Protocol: (§4) Two reference strains of Salmonella Typhimurium TA98 and Salmonella Typhimurium TA100, deficient in histidine synthesis, were used for this study according to the method proposed by Ames et al. with modifications. […] The mixture was mixed and poured onto a Davis minimal medium plate. The mixture without the test compound was used as a negative control. The positive control was a mixture of bacterial culture, biotin-histidine solution, and sodium azide (at a concentration of 15 μg/mL for strain TA100) or acriflavine (at a concentration of 100 μg/mL for strain TA98). Plates were incubated for 48 h at 37 °C, and then colonies were counted. The mutagenicity ratio (MR), the ratio of the number of revertants grown in the presence of the test compound to the number of spontaneously occurring revertants (negative control), was calculated. A mutagenic ratio equal to or greater than 1.7 indicates the mutagenic potential of the tested compounds. The study was performed in three times.

[5] = test system: Salmonella typhimurium TA98; experiment: Mutagenicity (Ames test); type: cell-based; settings: for Number of colonies: ± SD
Protocol: as §4

S. aureus ATCC 6538 = experiment: MIC/MBC microdilution; type: cell-based, Staphylococcus aureus; settings: S. aureus ATCC 6538
Protocol: as §2, §3

S. aureus MRSA R98 = experiment: MIC/MBC microdilution; type: cell-based, Staphylococcus aureus; settings: for Minimal bactericidal concentration (*MBC): 99.9% reduction; for Minimal inhibitory concentration (MIC): 24 h, 37 °C, >90% growth inhibition
Protocol: as §2, §3

[6] = Critical micelle concentration by conductometric measurements; type: physicochemical; settings: aqueous solution, 25 °C
Protocol: Values of critical micelle concentrations (CMC) of cationic surfactants were measured conductrometrically. N5721 conductometer (Tel-Eko Projekt sp z o.o., Poland), equipped with N5981 probe, was calibrated using 0.1 M, 0.01 M and 0.001 M KCl aqueous solutions (conductivities equal to 1.287 S/m, 0.141 S/m and 0.0147 S/m, respectively) and used without temperature compensation mode (constant temperature 25 °C was kept during all calibration procedures and measurements). Values of specific conductivities of at least 15 different concentrations for each surfactant were measured and plotted versus concentration; the discontinuity point was used to determine critical micelle concentration.

P. aeruginosa PAO1 [7] = experiment: Adhesion to glass; type: cell-based, Pseudomonas aeruginosa; settings: concentration not given
P. aeruginosa ATCC 27853 = experiment: MIC/MBC microdilution; type: cell-based, Pseudomonas aeruginosa; settings: P. aeruginosa ATCC 27853; for Minimal bactericidal concentration (*MBC): 99.9% reduction; for Minimal inhibitory concentration (MIC): 24 h, 37 °C, >90% growth inhibition
Protocol: as §2, §3

P. aeruginosa PAO1 [8] = experiment: MIC/MBC microdilution; type: cell-based, Pseudomonas aeruginosa; settings: for Minimal bactericidal concentration (*MBC): 99.9% reduction; for Minimal inhibitory concentration (MIC): 24 h, 37 °C, >90% growth inhibition
Protocol: as §2, §3

[9] = test system: S. epidermidis ATCC 35984; experiment: MIC/MBC microdilution; type: cell-based, Staphylococcus epidermidis
Protocol: as §2, §3

S. epidermidis SI8 = experiment: MIC/MBC microdilution; type: cell-based, Staphylococcus epidermidis
Protocol: as §2, §3

S. epidermidis B374 [10] = experiment: MIC/MBC microdilution; type: cell-based, Staphylococcus epidermidis; settings: S. epidermidis B374
Protocol: as §2, §3

[11] = 24 h, 37 °C, >90% growth inhibition
[12] = 99.9% reduction, read-out: Minimal bactericidal concentration (*MBC)
[13] = 24 h, 37 °C, >90% growth inhibition, read-out: Minimal inhibitory concentration (MIC)

Row | Structure (SMILES) | Minimal bactericidal concentration (*MBC) (E. coli H64) | Minimal inhibitory concentration (MIC) (E. coli H64; [11]) | Minimal bactericidal concentration (*MBC) (E. coli ATCC 11229) | Minimal inhibitory concentration (MIC) (E. coli ATCC 11229) | Mutagenicity index ([4]; ¼ MIC) | Number of colonies ([4]; ¼ MIC) | Mutagenicity index ([4]; ½ MIC) | Number of colonies ([4]; ½ MIC) | Mutagenicity index ([5]; ¼ MIC) | Number of colonies ([5]; ¼ MIC) | Mutagenicity index ([5]; ½ MIC) | Number of colonies ([5]; ½ MIC) | Minimal bactericidal concentration (*MBC) (S. aureus MRSA R98) | Minimal inhibitory concentration (MIC) (S. aureus MRSA R98) | CMC [6] | reduction of adhesion to glass (P. aeruginosa PAO1 [7]) | Minimal bactericidal concentration (*MBC) (P. aeruginosa ATCC 27853) | Minimal inhibitory concentration (MIC) (P. aeruginosa ATCC 27853) | Minimal bactericidal concentration (*MBC) (P. aeruginosa PAO1 [8]) | Minimal inhibitory concentration (MIC) (P. aeruginosa PAO1 [8]) | further results
1 | CCCCCCCCCCCCN(C)CCC[N+](C)(C)C.COC(=O)[O-] [MeC12, [(3-dodecyilomethyloamine)propyl] trimethylammonium methylcarbonate] | 640 *640 µM | 640 *640 µM | 640 *640 µM | 640 *640 µM | 0.74 | 208 ± 17 | 0.94 | 264 ± 11.3 | 0.75 | 17 ± 3.6 | 0.92 | 21 ± 3.6 | 640 *640 µM | 640 *640 µM | 0.014 mol/L | approximately 20% | > 1280 * > 1280 µM | > 1280 * > 1280 µM | > 1280 * > 1280 µM | > 1280 * > 1280 µM | inhibition of adhesion to stainless steel (S. epidermidis B374 [1]; 1280 µM, ranges given over several strains): 69–88%; reduced adhesion to polystyrene (S. epidermidis B374 [2]; 1280 µM): 25–46%; reduced adhesion to polystyrene [3]: 25–46%; MBC (S. aureus ATCC 6538; [12]): 640 µM; MIC (S. aureus ATCC 6538; [13]): 320 µM; MBC [9, 12]: 640 µM; MIC [9, 13]: 320 µM; MBC (S. epidermidis SI8; [12]): 640 µM; MIC (S. epidermidis SI8; [13]): 320 µM
2 | CCCCCCCCCCCCCCCCN(C)CCC[N+](C)(C)C.COC(=O)[O-] [MeC16, [(3-hexadecyilomethyloamine)propyl] trimethylammonium methylcarbonate] | 80 *80 µM | 80 *80 µM | 320 *320 µM | 320 *320 µM | 1.09 | 305 ± 8.7 | 1.09 | 306.7 ± 11.5 | 0.39 | 9 ± 2 | 0.19 | 4.3 ± 3.1 | 40 *40 µM | 40 *40 µM | 0.0012 mol/L | approximately 20% | > 1280 * > 1280 µM | > 1280 * > 1280 µM | > 1280 * > 1280 µM | > 1280 * > 1280 µM | inhibition of adhesion to stainless steel (S. epidermidis B374 [1]; concentration not given, range given over three strains): 69–83%; reduction in adhesion to polystyrene (S. epidermidis B374 [2]; 320 µM): 77%; MIC (E. coli H64; [13]): 80 µM; Minimal bactericidal concentration (*MBC) (S. aureus ATCC 6538; 99.9% reduction): 10 *10 µM; Minimal inhibitory concentration (MIC) (S. aureus ATCC 6538; [11]): 10 *10 µM; MBC (S. epidermidis B374 [10]; [12]): 160 µM; MIC (S. epidermidis B374 [10]; [13]): 80 µM; Minimal bactericidal concentration (*MBC) ([9]; 99.9% reduction): 40 *40 µM; Minimal inhibitory concentration (MIC) [9, 11]: 40 *40 µM; Minimal bactericidal concentration (*MBC) (S. epidermidis SI8; 99.9% reduction): 10 *10 µM; Minimal inhibitory concentration (MIC) (S. epidermidis SI8; [11]): 10 *10 µM
